Test results from publication PMC12521441 (Frontiers in Cellular and Infection Microbiology, 2025).

How the values were obtained:
DENV2 helicase = DENV2 helicase (Dengue virus type 2, UniProt P29990); experiment: Isothermal titration calorimetry, DENV2 helicase; type: binding; details: ITC, 16°C
TBEV helicase = TBEV helicase (Tick-borne encephalitis virus, UniProt Q01299); experiment: biochemical; type: binding
[1] = rats, radiolabeled Zafirlukast; ref Zeng et al., 2020; cited from earlier work
DENV4 helicase = DENV4 helicase (Dengue virus type 4, UniProt Q2YHF0); experiment: Isothermal titration calorimetry, DENV4 helicase; type: binding; details: ITC
YFV helicase = YFV helicase (Yellow fever virus, UniProt P03314); experiment: biochemical; type: binding
[2] = at higher doses, preclinical models; ref Finnerty et al., 1992; cited from earlier work
JEV helicase = target: T1, JEV helicase (Japanese encephalitis virus, UniProt P32886); experiment: Isothermal titration calorimetry, JEV helicase; type: binding; details: ITC, 16°C
T1 sequence (P32886 1676-2123 limits assumed): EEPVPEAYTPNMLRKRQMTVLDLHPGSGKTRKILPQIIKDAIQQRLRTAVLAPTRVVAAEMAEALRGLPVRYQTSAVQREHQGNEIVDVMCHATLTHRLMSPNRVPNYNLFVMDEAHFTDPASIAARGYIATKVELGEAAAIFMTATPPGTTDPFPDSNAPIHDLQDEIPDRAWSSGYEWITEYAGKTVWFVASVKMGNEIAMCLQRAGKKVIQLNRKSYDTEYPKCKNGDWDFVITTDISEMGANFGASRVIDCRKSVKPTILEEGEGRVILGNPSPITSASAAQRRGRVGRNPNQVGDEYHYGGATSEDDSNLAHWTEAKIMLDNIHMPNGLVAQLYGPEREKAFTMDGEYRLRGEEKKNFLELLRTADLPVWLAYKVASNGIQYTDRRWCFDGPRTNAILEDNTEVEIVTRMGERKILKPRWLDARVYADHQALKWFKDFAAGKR

ZIKV helicase = target: T2, ZIKV helicase (Zika virus, UniProt Q32ZE1); experiment: Isothermal titration calorimetry, ZIKV helicase; type: binding; details: ITC, 16°C
T2 sequence (Q32ZE1 1670-2115 limits assumed): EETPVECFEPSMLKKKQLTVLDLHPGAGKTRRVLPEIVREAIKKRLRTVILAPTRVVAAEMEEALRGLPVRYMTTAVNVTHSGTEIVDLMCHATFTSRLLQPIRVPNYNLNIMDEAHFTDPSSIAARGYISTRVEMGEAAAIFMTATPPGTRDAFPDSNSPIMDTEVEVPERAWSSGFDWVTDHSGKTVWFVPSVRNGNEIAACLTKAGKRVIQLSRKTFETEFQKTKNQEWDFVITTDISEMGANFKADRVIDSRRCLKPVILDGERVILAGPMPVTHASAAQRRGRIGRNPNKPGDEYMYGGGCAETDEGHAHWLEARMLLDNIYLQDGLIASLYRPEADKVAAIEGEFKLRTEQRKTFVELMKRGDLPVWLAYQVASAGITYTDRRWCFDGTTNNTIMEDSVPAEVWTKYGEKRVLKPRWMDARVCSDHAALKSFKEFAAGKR

Chain of YFV helicase (P03314 1660-2107 limits assumed): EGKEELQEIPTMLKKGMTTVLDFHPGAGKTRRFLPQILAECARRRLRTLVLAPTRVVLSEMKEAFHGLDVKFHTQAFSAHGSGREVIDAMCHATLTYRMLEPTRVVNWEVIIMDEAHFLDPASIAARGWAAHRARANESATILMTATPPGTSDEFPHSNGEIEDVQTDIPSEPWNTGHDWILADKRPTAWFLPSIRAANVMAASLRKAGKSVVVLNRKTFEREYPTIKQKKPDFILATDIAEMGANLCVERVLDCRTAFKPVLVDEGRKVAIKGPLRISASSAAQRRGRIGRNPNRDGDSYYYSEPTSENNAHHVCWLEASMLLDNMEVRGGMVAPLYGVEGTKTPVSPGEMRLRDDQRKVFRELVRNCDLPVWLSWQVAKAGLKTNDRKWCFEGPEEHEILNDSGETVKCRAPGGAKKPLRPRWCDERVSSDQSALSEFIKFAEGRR
Chain of DENV2 helicase (P29990 1646-2093 limits assumed): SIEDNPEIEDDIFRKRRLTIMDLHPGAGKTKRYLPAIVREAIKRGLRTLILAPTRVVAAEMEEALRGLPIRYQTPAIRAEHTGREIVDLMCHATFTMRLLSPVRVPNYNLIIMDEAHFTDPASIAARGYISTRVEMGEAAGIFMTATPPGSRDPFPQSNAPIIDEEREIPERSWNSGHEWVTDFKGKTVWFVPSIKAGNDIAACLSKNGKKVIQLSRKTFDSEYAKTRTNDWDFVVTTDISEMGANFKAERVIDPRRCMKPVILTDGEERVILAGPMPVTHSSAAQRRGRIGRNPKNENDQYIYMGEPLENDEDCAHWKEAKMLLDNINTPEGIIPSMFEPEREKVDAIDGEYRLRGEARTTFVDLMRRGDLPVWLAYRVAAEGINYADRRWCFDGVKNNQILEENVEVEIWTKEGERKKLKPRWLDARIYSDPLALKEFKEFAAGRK
Chain of DENV4 helicase (Q2YHF0 1645-2092 limits assumed): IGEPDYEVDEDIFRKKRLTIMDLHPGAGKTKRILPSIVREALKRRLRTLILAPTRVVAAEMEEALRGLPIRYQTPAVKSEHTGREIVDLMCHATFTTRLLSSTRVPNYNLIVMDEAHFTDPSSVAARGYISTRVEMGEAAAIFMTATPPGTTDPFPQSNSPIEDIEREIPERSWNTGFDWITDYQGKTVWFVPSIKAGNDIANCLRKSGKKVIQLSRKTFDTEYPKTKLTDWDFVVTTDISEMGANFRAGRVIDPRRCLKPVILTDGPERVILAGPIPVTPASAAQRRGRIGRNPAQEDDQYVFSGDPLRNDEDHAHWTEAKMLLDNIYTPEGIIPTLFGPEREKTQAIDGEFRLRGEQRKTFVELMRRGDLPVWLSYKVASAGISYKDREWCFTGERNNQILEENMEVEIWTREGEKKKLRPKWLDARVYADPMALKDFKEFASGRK
Chain of TBEV helicase (Q01299 1666-2110 limits assumed): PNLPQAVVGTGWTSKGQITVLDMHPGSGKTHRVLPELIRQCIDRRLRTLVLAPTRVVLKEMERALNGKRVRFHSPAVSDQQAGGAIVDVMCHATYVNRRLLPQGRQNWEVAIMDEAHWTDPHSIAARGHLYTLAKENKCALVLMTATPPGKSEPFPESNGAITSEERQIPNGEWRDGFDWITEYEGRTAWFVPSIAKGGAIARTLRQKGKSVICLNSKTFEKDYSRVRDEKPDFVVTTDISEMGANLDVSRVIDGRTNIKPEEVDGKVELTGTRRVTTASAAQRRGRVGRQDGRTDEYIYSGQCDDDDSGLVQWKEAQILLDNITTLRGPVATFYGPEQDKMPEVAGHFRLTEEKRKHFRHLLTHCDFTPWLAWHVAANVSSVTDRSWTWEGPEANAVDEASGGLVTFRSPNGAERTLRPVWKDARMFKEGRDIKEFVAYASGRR

Which results are given for COc1cc(C(=O)NS(=O)(=O)c2ccccc2C)ccc1Cc1cn(C)c2ccc(NC(=O)OC3CCCC3)cc12 [Zafirlukast]?
Kd (DENV2 helicase): 2.73 µM; Kd (TBEV helicase): 361 µM; Distribution across the blood-brain barrier [1]: minimal distribution across the blood–brain barrier; Kd (DENV4 helicase): 1.57 µM; Kd (YFV helicase): 6.59 µM; Tumor incidence [2]: increased incidence of hepatocellular tumors, histiocytic sarcoma, and bladder cancer; Kd (JEV helicase): 199 µM; Kd (ZIKV helicase): 13.9 µM
